The text below walks through data of PubChem BioAssay (NCI).

“And” between values parts separate entries of the source, which are not always exact repeats. Identical values can stand only once.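 Each compound was tested at five concentrations against cells in 96-well plates for 48 hours. Here, GI50 denotes the concentration required for 50% inhibition of growth. TGI marks complete inhibition of growth.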

Some test systems named below: HS 578T breast; HT29 colon; M14 melanoma; MCF7 breast; MDA-MB-231 breast; RPMI-8226 leukemia; SK-OV-3 ovarian; SN12C renal; SNB-19 CNS; UACC-62 melanoma.
What all share (assay): NCI anticancer screen, dose series, 48 h

Regarding `O=C(Cc1cccc(OC(F)(F)F)c1)Nc1ccc(CCCCc2nnc(NC(=O)Cc3ccccn3)s2)nn1`, the GI50 in the assay on HS 578T breast is 13.8 µM; in the assay with HT29 colon it was 24.3 µM; with M14 melanoma it was 36.3 µM; with MCF7 breast, 16.5 µM; in the assay on MDA-MB-231 breast, 29.8 µM; with RPMI-8226 leukemia it was 0.452 µM. The GI50 in the assay on SK-OV-3 ovarian is 11.6 µM; in the assay on SN12C renal it was 18.5 µM; with SNB-19 CNS, 29.4 µM; with UACC-62 melanoma it was 19.9 µM. The TGI in the assay with HS 578T breast was 40.2 µM; in the assay on HT29 colon it was 96.7 µM; in the assay with M14 melanoma, over 100 µM; in the assay on MCF7 breast it was over 100 µM; in the assay on MDA-MB-231 breast it was over 100 µM; in the assay on RPMI-8226 leukemia it was 32.3 µM. Also, the TGI is 25.1 µM in the assay on SK-OV-3 ovarian, over 100 µM in the assay on SN12C renal, over 100 µM in the assay on SNB-19 CNS and over 100 µM with UACC-62 melanoma.
For `Cc1cc(C)c(O)c(CN(C)Cc2cc(Cl)cc(Cl)c2O)c1`, the GI50 with HS 578T breast is 5.41 µM; in the assay with HT29 colon, 5.1 µM; with M14 melanoma, 9.17 µM; in the assay on MCF7 breast, 3.28 µM; in the assay on MDA-MB-231 breast, 2.97 µM; in the assay on RPMI-8226 leukemia it was 3.12 µM. Moreover, the GI50 in the assay with SK-OV-3 ovarian is 6.48 µM; in the assay on SN12C renal, 4.81 µM; with SNB-19 CNS it was 4.82 µM; in the assay with UACC-62 melanoma it was 3.42 µM. The TGI in the assay on HS 578T breast came to 32.8 µM; with HT29 colon it was 17.4 µM; in the assay on M14 melanoma, 22.8 µM; in the assay with MCF7 breast, 14.3 µM; in the assay with MDA-MB-231 breast, 12.8 µM; in the assay with RPMI-8226 leukemia it was 23.2 µM. Further, the TGI with SK-OV-3 ovarian is 33 µM; in the assay on SN12C renal, 20.4 µM; with SNB-19 CNS, 20.8 µM; with UACC-62 melanoma, 13.1 µM.
On to `COc1ccc(C(=O)c2cc3c(OC)c(OC)c(OC)cc3[nH]2)cc1`, for which the GI50 is 4.25 µM in the assay on HS 578T breast; 4 µM in the assay on HT29 colon; 3.69 µM with M14 melanoma; 1.32 µM in the assay on MCF7 breast; 4.96 µM in the assay on MDA-MB-231 breast; 2.81 µM in the assay on RPMI-8226 leukemia. Also, the GI50 was over 100 µM in the assay with SK-OV-3 ovarian, 5.21 µM in the assay on SN12C renal, 18.6 µM with SNB-19 CNS and 3.39 µM in the assay on UACC-62 melanoma. The TGI in the assay with HS 578T breast is over 100 µM; in the assay with HT29 colon, over 100 µM; with M14 melanoma, over 100 µM; in the assay with MCF7 breast, over 100 µM; with MDA-MB-231 breast it was over 100 µM; in the assay on RPMI-8226 leukemia it was 8.13 µM. Moreover, the TGI with SK-OV-3 ovarian, in the assay with SN12C renal, with SNB-19 CNS and with UACC-62 melanoma was over 100 µM throughout.
`C=CC1CC12C(=O)C1OC2(C)C2C(=O)c3c(O)ccc(O)c3C(=O)C12` (centres undefined): the GI50 with HS 578T breast is 7.44 µM; with HT29 colon it was 4.03 µM; with M14 melanoma, 3.58 µM; in the assay on MCF7 breast, 2.2 µM; in the assay with MDA-MB-231 breast it was 2.33 µM; in the assay with RPMI-8226 leukemia, 0.423 µM. For the same compound, the GI50 in the assay on SK-OV-3 ovarian is 11.9 µM; with SN12C renal, 3.2 µM; in the assay on SNB-19 CNS, 5.35 µM; in the assay with UACC-62 melanoma it was 2.37 µM. Besides, the TGI is 19.3 µM with HS 578T breast; 16 µM in the assay on HT29 colon; 14.7 µM in the assay on M14 melanoma; 8.38 µM in the assay with MCF7 breast; 7.38 µM in the assay on MDA-MB-231 breast; 41.2 µM in the assay with SK-OV-3 ovarian. For the same compound, the values for the TGI with SN12C renal, in the assay with SNB-19 CNS and with UACC-62 melanoma were 11.6 µM, 14.5 µM and 6.31 µM, respectively.
As to `O=c1[nH]cnc2[nH]ncc12`, the GI50 in the assay on HS 578T breast is 2540 µM; in the assay on HT29 colon, 842 µM; with M14 melanoma, 234 µM; in the assay on MCF7 breast it was 259 µM; with MDA-MB-231 breast, 163 µM; in the assay with RPMI-8226 leukemia it was 116 µM. The GI50 in the assay with SK-OV-3 ovarian was > 85.9 µM and 111 µM; in the assay with SN12C renal it was 485 µM; in the assay with SNB-19 CNS it was over 5000 µM; with UACC-62 melanoma, 166 µM. For the same compound, the TGI with HS 578T breast was over 5000 µM; with HT29 colon, over 5000 µM; with M14 melanoma it was over 5000 µM; with MCF7 breast, over 5000 µM; in the assay with MDA-MB-231 breast, 1750 µM; in the assay with RPMI-8226 leukemia, over 5000 µM. In addition, the TGI was over 4080 µM in the assay with SK-OV-3 ovarian, over 5000 µM in the assay on SN12C renal, over 5000 µM with SNB-19 CNS and over 2560 µM in the assay with UACC-62 melanoma.
As for `O=C(N/N=C/c1ccccc1O)C(=O)Nc1ccc(F)cc1`, the GI50 is 33.8 µM in the assay on HS 578T breast; 8.86 µM in the assay on HT29 colon; 4.87 µM in the assay with M14 melanoma; 3.52 µM with MCF7 breast; 3.23 µM with MDA-MB-231 breast; 7.9 µM in the assay on RPMI-8226 leukemia. Also, the GI50 is 10.3 µM in the assay on SK-OV-3 ovarian, 6.46 µM in the assay on SN12C renal, 4.91 µM in the assay on SNB-19 CNS and 3.32 µM with UACC-62 melanoma. Also, the TGI with HS 578T breast was over 100 µM; in the assay on HT29 colon it was over 100 µM; with M14 melanoma, 40.4 µM; with MCF7 breast, over 100 µM; in the assay with MDA-MB-231 breast, over 100 µM; with RPMI-8226 leukemia, over 100 µM. The TGI with SK-OV-3 ovarian was over 100 µM; in the assay on SN12C renal, over 100 µM; with SNB-19 CNS, over 100 µM; with UACC-62 melanoma, 23.1 µM.
In the case of `O=C(O)c1cc(N=Cc2ccccc2O)cc(C(=O)O)c1`, the TGI in the assay on HS 578T breast, in the assay with HT29 colon, with M14 melanoma, in the assay with MCF7 breast, in the assay with MDA-MB-231 breast and in the assay on RPMI-8226 leukemia was over 100 µM in each case. In addition, the TGI in the assay with SK-OV-3 ovarian, in the assay on SN12C renal, with SNB-19 CNS and in the assay with UACC-62 melanoma was over 100 µM throughout.
Regarding `NS(=O)(=O)c1cccc(N=Cc2c(O)[nH]c3ccccc23)c1`, the GI50 in the assay on HS 578T breast, with HT29 colon, in the assay with M14 melanoma, in the assay with MCF7 breast, in the assay with MDA-MB-231 breast and in the assay with RPMI-8226 leukemia was over 25 µM throughout. Also, the GI50 in the assay with SK-OV-3 ovarian was over 18.5 µM; in the assay on SN12C renal it was over 25 µM; in the assay with SNB-19 CNS, over 25 µM; with UACC-62 melanoma, over 25 µM. In addition, the TGI in the assay with HS 578T breast, in the assay on HT29 colon, with M14 melanoma, with MCF7 breast, in the assay with MDA-MB-231 breast and with RPMI-8226 leukemia was over 25 µM throughout. Moreover, the TGI in the assay on SK-OV-3 ovarian, in the assay on SN12C renal, with SNB-19 CNS and in the assay on UACC-62 melanoma was over 25 µM throughout.
